From patent publication US20120039820A1 (Glaxo Group Limited, priority 2009, published 2012)

Key:
Escherichia coli = experiment: MIC test (broth microdilution, turbidity); format: cell-based; settings: TSB, 37° C., 24 hours
Experimental: (§1) The MIC of a material composition was determined by the following method. A fresh culture of the test inoculum of each bacterium was diluted in sterile 0.1% special peptone solution to give a concentration of approximately 10^6 colony forming units (cfu) per ml. Test samples of material were diluted in sterile tryptone soya broth (TSB) to give an initial stock solution, typically of 1% or 2% (10,000 or 20,000 ppm). However, it will be appreciated that the concentration of the initial stock solution of material can be varied if desired to investigate a different range of concentrations. Each row of a standard, 96-well plastic microtitre plate (labelled A-H) was allocated to one sample, i. e. eight samples per plate. Row H contained only TSB for use as a bacterial control to indicate the degree of turbidity resulting from bacterial growth in the absence of any test material.
(§2) Aseptically, 200 μl of the initial dilution of material was transferred to the 1st and 7th well of the appropriate row. All other test wells were filled with 100 μl of sterile TSB using an 8- channel micro-pipette. The contents of each of the wells in column 1 were mixed by sucking samples up and down the pipette tips, before 100 μl was transferred to column 2.
(§3) The same sterile pipette tips were used to transfer 100 μl of each well in column 7 into the appropriate well in column 8. This set of eight tips was then discarded into disinfectant solution. Using eight fresh, sterile tips the process was repeated by transferring 100 μl from column 2 into column 3 (and into 8 and 9). The process was continued until all the wells in columns 6 and 12 contained 200 μl. After mixing, 100 μl was discarded from wells in columns 6 and 12 to waste. Finally, 100 μl of pre-diluted bacterial test culture (approx 10^6 cfu/ml) was added, thus giving a final volume of 200 μl in each well.
(§4) A blank plate was prepared for each set of eight samples in exactly the same way, except that 100 μl of sterile TSB was added instead of the bacterial culture. This plate was used as the control plate against which the test plate (s) could be read.
(§5) Test and control plates were then sealed using autoclave tape and incubated at 37° C. for 24 hours. The wells were examined after 24 hours for turbidity to determine if the material had inhibited growth or not. Plates are then read in a suitable microtitre plate reader at an absorbance of 540 nm as a measure of turbidity resulting from bacterial growth. The control, un-inoculated plate for each set of samples was read first, and the plate reader then programmed to use the control readings to blank all other plate readings for the inoculated plates for the same set of test materials (i. e. removing turbidity due to material and possible colour changes during incubation). Thus, the corrected readings generated were absorbances resulting from turbidity from bacterial growth.

Staphylococcus aureus = experiment: MIC test (broth microdilution, turbidity); format: cell-based; settings: TSB, 37° C., 24 hours
Experimental: as §1, §2, §3, §4, §5

Streptococcus mutans = experiment: MIC test (broth microdilution, turbidity); format: cell-based; settings: TSB, 37° C., 24 hours
Experimental: as §1, §2, §3, §4, §5

S. aureus = experiment: Kill time suspension test; format: cell-based, Staphylococcus aureus
Experimental: This is set aside for approximately 2 minutes. 8 ml of test product is added, a timing clock started and immediately vortexed for 5 seconds.
To 8 ml of ‘Test Sample’ add 1 ml of sterile purified water and 1 ml of synthetic saliva. This is the ‘validation solution’.
The mean number of survivors is calculated for the each test and appropriate control samples, and expressed as the log to the base 10 (Log count).

| Compound | MIC (Escherichia coli) [parts per million] | MIC (Staphylococcus aureus) [parts per million] | MIC (Streptococcus mutans) [parts per million] | kill (in words) (S. aureus) |
| --- | --- | --- | --- | --- |
| Cc1cc(O)ccc1C(C)C [IPMP, 4-isopropyl-3-methylphenol] | 312 | 156 | 1250 | – |
| zinc gluconate [Zn Gluconate] | 1560 | 6250 | 6250 | ineffective |
